ChEMBL document CHEMBL5291721, “A preclinical secondary pharmacology resource illuminates target-adverse drug reaction associations of marketed drugs” (Nat Commun, 2023)

Legend:
Adenosine receptor A1 = target: T1, Adenosine receptor A1 (Homo sapiens, UniProt P30542)
T1 sequence (P30542 whole entry): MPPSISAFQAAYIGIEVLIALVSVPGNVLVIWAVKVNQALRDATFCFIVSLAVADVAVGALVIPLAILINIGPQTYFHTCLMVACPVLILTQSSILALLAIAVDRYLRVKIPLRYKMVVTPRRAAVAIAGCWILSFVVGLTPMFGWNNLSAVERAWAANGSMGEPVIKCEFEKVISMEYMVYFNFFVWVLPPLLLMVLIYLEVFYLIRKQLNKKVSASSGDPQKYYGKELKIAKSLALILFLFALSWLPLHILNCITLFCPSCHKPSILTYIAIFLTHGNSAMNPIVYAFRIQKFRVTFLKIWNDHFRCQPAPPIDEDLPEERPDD

[1] = target: T2, 5-hydroxytryptamine receptor 2C (Homo sapiens, UniProt P28335)
T2 sequence (P28335 whole entry): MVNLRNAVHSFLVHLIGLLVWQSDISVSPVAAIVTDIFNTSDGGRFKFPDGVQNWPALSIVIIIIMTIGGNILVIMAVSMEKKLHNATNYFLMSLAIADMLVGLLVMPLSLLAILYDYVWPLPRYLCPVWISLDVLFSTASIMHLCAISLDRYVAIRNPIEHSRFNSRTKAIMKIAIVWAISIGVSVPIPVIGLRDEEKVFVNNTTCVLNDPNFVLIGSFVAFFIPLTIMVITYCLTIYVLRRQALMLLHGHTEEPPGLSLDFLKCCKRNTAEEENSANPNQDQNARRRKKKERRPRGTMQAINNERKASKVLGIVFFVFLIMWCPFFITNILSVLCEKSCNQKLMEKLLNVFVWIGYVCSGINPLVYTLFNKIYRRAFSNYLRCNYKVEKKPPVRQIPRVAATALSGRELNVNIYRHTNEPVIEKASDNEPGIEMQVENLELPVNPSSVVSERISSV

[2] = target: Sodium-dependent noradrenaline transporter (Homo sapiens, UniProt P23975)
Sodium-dependent noradrenaline transporter, sequence (P23975 whole entry): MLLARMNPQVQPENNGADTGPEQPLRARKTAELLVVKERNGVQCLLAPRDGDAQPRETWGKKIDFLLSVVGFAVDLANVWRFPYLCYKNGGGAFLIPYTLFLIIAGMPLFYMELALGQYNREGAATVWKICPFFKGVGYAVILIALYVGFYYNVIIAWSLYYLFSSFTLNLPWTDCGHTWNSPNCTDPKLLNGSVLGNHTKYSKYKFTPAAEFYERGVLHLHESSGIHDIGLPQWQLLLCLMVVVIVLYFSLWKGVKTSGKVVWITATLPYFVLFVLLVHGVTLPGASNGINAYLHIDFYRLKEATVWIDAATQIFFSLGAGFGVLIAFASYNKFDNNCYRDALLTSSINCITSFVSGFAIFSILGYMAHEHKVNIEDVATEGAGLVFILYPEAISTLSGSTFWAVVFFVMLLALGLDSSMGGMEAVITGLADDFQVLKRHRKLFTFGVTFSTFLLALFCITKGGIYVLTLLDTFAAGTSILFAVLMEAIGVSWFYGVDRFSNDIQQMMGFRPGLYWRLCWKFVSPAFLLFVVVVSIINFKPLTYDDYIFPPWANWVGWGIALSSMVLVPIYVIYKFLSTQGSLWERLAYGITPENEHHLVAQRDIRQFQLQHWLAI

Cannabinoid receptor 1 = Cannabinoid receptor 1 (Homo sapiens, UniProt P21554); type: functional, cell-based
Cannabinoid receptor 1, sequence (P21554 whole entry): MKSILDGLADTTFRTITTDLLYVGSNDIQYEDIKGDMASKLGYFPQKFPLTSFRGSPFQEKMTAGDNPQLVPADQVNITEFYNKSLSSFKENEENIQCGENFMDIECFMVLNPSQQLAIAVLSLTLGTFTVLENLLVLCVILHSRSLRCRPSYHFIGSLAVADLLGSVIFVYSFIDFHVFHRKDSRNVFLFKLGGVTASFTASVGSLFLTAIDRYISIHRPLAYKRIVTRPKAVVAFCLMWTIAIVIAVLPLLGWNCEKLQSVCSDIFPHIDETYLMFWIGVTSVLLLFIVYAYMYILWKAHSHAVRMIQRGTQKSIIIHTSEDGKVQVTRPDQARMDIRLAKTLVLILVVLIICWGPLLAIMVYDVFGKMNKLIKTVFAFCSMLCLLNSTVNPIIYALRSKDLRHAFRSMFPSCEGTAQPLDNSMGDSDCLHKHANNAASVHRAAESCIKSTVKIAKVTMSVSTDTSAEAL

[3] = target: T3, Alpha-2A adrenergic receptor (Homo sapiens, UniProt P08913); type: functional, cell-based
T3 sequence (P08913 whole entry): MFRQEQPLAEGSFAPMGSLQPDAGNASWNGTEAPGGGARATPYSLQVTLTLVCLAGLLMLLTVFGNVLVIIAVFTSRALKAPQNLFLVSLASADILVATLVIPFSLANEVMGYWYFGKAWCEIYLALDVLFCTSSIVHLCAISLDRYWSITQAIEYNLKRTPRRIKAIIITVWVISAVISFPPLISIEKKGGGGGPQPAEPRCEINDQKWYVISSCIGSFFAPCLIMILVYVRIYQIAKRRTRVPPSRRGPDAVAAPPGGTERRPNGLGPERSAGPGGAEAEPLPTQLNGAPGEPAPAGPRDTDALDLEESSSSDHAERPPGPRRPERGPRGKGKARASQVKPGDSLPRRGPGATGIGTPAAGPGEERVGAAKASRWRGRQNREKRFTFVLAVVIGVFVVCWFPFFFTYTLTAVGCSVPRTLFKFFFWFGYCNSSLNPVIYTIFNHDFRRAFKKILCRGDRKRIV

[4] = target: Beta-2 adrenergic receptor (Homo sapiens, UniProt P07550)
Beta-2 adrenergic receptor, sequence (P07550 whole entry): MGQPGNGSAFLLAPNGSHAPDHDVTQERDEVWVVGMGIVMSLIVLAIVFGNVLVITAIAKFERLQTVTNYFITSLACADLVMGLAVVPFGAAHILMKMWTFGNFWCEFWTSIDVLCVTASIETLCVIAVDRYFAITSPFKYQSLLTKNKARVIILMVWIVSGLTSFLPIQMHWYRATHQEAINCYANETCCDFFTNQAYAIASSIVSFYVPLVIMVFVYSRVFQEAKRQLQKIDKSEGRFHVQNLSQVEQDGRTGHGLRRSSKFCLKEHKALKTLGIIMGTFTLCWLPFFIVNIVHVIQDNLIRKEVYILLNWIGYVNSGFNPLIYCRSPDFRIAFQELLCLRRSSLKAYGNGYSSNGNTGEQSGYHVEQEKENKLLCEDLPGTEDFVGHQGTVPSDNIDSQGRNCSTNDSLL

[5] = target: 5-hydroxytryptamine receptor 2B (Homo sapiens, UniProt P41595); type: functional, cell-based
5-hydroxytryptamine receptor 2B, sequence (P41595 whole entry): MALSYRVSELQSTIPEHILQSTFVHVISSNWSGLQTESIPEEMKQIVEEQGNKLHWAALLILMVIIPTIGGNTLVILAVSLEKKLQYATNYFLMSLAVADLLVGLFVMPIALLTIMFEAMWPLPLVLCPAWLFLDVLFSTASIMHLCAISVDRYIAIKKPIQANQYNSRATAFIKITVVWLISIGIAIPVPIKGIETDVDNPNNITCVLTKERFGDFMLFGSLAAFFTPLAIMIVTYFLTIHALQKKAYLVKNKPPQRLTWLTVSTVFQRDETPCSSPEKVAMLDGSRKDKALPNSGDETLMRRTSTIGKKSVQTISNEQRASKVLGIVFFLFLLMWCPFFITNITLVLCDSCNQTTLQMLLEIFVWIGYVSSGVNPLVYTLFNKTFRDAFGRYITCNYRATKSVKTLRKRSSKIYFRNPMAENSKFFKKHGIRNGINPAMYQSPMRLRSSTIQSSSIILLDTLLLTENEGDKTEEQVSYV

Estrogen receptor = target: T4, Estrogen receptor (Homo sapiens, UniProt P03372)
T4 sequence (P03372 whole entry): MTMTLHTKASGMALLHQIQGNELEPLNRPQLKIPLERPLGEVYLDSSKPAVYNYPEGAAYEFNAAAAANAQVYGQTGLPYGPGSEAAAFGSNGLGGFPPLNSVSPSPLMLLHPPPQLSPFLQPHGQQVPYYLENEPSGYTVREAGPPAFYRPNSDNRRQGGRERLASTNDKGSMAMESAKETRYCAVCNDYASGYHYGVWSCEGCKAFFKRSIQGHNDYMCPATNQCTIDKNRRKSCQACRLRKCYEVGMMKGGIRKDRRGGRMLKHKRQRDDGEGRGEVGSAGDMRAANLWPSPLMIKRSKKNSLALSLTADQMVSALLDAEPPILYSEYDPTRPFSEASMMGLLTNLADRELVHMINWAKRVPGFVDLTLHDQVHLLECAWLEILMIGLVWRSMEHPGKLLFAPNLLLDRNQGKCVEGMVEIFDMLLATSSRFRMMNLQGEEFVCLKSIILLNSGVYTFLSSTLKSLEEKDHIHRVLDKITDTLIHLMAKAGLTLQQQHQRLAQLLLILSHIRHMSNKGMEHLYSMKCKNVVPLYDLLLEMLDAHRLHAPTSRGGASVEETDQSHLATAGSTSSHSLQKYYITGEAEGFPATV

Adenosine receptor A3 = target: T5, Adenosine receptor A3 (Homo sapiens, UniProt P0DMS8)
T5 sequence (P0DMS8 whole entry): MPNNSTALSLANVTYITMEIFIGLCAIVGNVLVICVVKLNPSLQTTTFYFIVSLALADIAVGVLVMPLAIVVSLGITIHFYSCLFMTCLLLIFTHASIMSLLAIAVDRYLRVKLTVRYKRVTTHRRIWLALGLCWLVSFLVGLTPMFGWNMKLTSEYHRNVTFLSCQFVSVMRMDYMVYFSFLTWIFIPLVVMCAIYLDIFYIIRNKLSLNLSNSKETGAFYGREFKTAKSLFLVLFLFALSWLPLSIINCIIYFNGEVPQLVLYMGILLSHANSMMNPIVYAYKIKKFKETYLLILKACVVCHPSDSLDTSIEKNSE

[6] = target: Voltage-gated inwardly rectifying potassium channel KCNH2 (Homo sapiens, UniProt Q12809); type: functional; conditions: read-out: AC50
Voltage-gated inwardly rectifying potassium channel KCNH2, sequence (Q12809 whole entry): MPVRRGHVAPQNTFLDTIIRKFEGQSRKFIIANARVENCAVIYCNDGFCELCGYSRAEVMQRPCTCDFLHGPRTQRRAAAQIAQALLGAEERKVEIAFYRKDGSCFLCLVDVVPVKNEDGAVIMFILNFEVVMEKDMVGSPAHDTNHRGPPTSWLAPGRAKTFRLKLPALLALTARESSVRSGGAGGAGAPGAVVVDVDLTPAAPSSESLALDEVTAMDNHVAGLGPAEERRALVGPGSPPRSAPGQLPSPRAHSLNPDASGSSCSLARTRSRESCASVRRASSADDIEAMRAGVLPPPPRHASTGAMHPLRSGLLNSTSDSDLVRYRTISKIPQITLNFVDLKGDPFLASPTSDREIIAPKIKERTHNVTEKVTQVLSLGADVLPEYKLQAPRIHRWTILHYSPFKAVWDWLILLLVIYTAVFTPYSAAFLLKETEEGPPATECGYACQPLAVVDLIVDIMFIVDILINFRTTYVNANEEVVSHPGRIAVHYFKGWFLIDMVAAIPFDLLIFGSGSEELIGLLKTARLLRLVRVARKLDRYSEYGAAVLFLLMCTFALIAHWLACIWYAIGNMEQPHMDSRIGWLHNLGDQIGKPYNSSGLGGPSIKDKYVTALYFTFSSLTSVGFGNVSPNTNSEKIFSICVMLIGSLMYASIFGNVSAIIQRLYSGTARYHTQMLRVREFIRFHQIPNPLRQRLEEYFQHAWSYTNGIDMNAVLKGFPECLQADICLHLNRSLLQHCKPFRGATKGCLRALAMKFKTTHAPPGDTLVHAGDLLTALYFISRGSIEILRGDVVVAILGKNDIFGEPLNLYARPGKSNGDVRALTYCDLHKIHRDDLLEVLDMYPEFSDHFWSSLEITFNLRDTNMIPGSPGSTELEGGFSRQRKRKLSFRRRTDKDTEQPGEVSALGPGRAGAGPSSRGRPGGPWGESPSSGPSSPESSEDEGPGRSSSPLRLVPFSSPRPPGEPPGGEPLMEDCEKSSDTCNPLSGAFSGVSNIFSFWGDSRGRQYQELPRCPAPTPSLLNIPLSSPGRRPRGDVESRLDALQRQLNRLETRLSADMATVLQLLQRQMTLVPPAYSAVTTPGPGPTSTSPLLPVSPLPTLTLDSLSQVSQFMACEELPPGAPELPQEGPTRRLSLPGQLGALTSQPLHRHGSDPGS

[7] = target: T6, 5-hydroxytryptamine receptor 1A (Homo sapiens, UniProt P08908); type: functional, cell-based
T6 sequence (P08908 whole entry): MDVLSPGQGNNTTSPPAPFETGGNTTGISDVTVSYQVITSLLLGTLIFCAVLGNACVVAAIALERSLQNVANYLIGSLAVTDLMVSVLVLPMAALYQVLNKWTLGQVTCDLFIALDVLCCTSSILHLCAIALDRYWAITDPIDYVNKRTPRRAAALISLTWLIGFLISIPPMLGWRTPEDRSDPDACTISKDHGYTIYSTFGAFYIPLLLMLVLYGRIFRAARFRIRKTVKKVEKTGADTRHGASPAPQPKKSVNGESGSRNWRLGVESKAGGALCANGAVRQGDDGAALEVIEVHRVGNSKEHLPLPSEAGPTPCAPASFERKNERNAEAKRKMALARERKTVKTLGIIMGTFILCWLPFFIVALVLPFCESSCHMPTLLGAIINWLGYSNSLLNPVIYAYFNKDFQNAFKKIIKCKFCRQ
Further: assay procedure not described here.

SMILES | AC50 (Adenosine receptor A1) [µM] | AC50 [1] [µM] | AC50 [2] [µM] | AC50 (Cannabinoid receptor 1) [µM] | AC50 [3] [µM] | AC50 [4] [µM] | AC50 [5] [µM] | AC50 (Estrogen receptor) [µM] | AC50 (Adenosine receptor A3) [µM] | AC50 [6] [µM] | AC50 [7] [µM]
CN1CCc2cccc3c2[C@H]1Cc1ccc(O)c(O)c1-3 [APOMORPHINE] | > 30 | 7.3 | > 30 | > 30 | 3.8 | > 10 | 4.7 | 1.47 | 0.67 | – | –
CCOc1cc(N)c([N+](=O)[O-])cc1C(=O)NC1CCN(CC2CC=CCC2)CC1 (stereo not drawn) [CINITAPRIDE] | > 30 | – | 24 | > 30 | > 30 | 16 | 0.19 | > 30 | > 30 | 0.31 | –
COC(=O)[C@H]1[C@@H](OC(=O)c2ccccc2)C[C@@H]2CC[C@H]1N2C [COCAINE] | > 30 | > 30 | – | > 30 | > 30 | > 30 | > 30 | > 30 | > 30 | – | –
CCCCOc1cc(C(=O)NCCN(CC)CC)c2ccccc2n1 [DIBUCAINE] | > 30 | > 30 | > 10 | > 30 | > 10 | > 10 | > 10 | – | > 30 | 1.42 | > 10
CCCCCCCCCCCC[N+](C)(C)CCOc1ccccc1 [DOMIPHEN] | > 30 | 1.1 | 1.4 | > 30 | – | 15 | 11 | 5 | 10 | 1.7 | –
CCNC(C)Cc1cccc(C(F)(F)F)c1 (stereo not drawn) [FENFLURAMINE] | > 30 | – | – | > 30 | – | – | – | > 30 | > 30 | > 30 | –
CCC1(C2=CCCCCC2)C(=O)NC(=O)NC1=O [HEPTABARBITAL] | > 10 | > 30 | > 10 | > 30 | > 10 | > 10 | > 10 | > 10 | > 10 | > 30 | –
COc1ccc(C(=O)NCc2ccc(OCCN(C)C)cc2)cc1OC [ITOPRIDE] | > 30 | > 30 | > 30 | > 30 | > 30 | > 30 | > 30 | > 30 | > 30 | > 30 | –
O=C(O)Cc1cn(-c2ccccc2)nc1-c1ccc(Cl)cc1 [LONAZOLAC] | > 30 | > 30 | > 30 | > 30 | > 30 | > 30 | > 30 | > 30 | > 30 | > 30 | –
O=C(OCCN1CCOCC1)c1cccnc1Nc1cccc(C(F)(F)F)c1 [MORNIFLUMATE] | > 30 | > 30 | 17 | > 30 | > 30 | > 30 | 10 | > 30 | > 30 | 4.35 | –
COc1c(C)c2c(c(O)c1C/C=C(\C)CCC(=O)OCCN1CCOCC1)C(=O)OC2 [MYCOPHENOLATE MOFETIL] | > 30 | > 30 | > 30 | > 30 | > 30 | > 30 | > 30 | > 30 | > 30 | 13 | –
CCCCCCCCOc1ccccc1C(=O)Nc1ccc(C(=O)OCC[N+](C)(CC)CC)cc1 [OTILONIUM BROMIDE] | > 30 | 1.1 | 3.3 | > 30 | – | 11 | 3.1 | > 30 | 5.3 | 0.66 | –
CC(Cc1ccccc1)NCCC(c1ccccc1)c1ccccc1 (stereo not drawn) [PRENYLAMINE] | > 30 | > 30 | 2.3 | – | > 10 | 3.5 | > 10 | > 30 | 15.6 | 0.736 | –
C#CCN(C)[C@H](C)Cc1ccccc1 [SELEGILINE] | > 10 | > 30 | > 10 | > 30 | > 10 | > 10 | > 10 | > 10 | > 10 | > 30 | –
Cc1c(C(=O)Nc2ccc(N3C[C@@H](C)O[C@@H](C)C3)nc2)cccc1-c1ccc(OC(F)(F)F)cc1 [SONIDEGIB] | > 30 | > 30 | > 10 | – | – | > 10 | – | > 30 | > 30 | – | –
CC[C@]1(O)C[C@@H]2CN(CCc3c([nH]c4ccccc34)[C@@](C(=O)OC)(c3cc4c(cc3OC)N(C)[C@H]3[C@@](O)(C(N)=O)[C@H](O)[C@]5(CC)C=CCN6CC[C@]43[C@@H]65)C2)C1 [VINDESINE] | > 30 | > 30 | > 30 | – | > 30 | > 30 | > 30 | > 30 | > 30 | 14.9 | –
CN1CCN(C(=O)OC2c3nccnc3C(=O)N2c2ccc(Cl)cn2)CC1 (stereo not drawn) [ZOPICLONE] | > 30 | > 10 | > 30 | > 30 | > 10 | > 10 | > 10 | – | 18.3 | > 30 | > 10
